Where two headings read alike, the source gives them in different places.
What was measured:
Format in all cases: cell-based
[1] = target: T1, human 5-HT2B receptor (Homo sapiens, UniProt P41595); assay: Functional activity by Ca++-flux (intracellular calcium mobilization), 5-HT2B
T1 construct: expressed in transfected cells; host or cells: HEK293 (ATCC CRL-1573), retroviral infection with pBabepuro-FLAG-h5-HT2BR, polyclonal line

[2] = target: T2, human 5-HT2C receptor (Homo sapiens, UniProt P28335); assay: Functional activity by Ca++-flux (intracellular calcium mobilization), 5-HT2C; conditions: for 2A/2C ratio: ratio of EC50 5-HT2A / 5-HT2C; for 2B/2C ratio: ratio of EC50 5-HT2B / 5-HT2C; for Emax at the 5-HT2C receptor: partial agonist activity; for selectivity over the 5-HT2A receptor: 5-HT2C versus 5-HT2A
T2 construct: expressed in transfected cells; host or cells: HEK-293
T2 sequence (P28335 33-458): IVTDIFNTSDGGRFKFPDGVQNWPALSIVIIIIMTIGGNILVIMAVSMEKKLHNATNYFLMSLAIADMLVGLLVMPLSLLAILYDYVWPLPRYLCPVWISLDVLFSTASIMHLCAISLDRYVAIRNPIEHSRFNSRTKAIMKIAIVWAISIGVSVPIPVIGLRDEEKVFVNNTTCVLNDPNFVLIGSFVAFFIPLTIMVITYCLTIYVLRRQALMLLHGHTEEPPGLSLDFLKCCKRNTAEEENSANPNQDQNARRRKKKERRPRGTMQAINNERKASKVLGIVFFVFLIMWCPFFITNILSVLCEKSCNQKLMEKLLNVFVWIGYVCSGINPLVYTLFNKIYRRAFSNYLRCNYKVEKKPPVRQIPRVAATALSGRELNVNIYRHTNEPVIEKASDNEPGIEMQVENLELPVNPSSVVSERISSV
Procedure: The functional activity of compounds for the human 5-HT2A, human 5-HT2B, and human 5-HT2C receptors as agonists, partial agonists and antagonists is determined by measurement of Ca++-flux. […] As noted above, other methods for assessing agonist/antagonist function of compounds for 5-HT2 family receptors are known in the art.
(§1) For these studies stably expressing lines of h5-HT2A, h5-HT2B, and h5-HT2C receptors are prepared in HEK-293 cells. For the h5-HT2A and h5-HT2C-INI receptors, stably expressing HEK-293 cell lines were constructed as previously described using a pIRES-NEO vector system (See: Rauser et al, J Pharmacol Exp Ther 299: 83-89, 2001).
(§2) Stable cell lines were plated with ˜40,000 cells/well into uncoated (3T3 cells) or poly-L-lysine coated (HEK293 cells) 96-well plates in DMEM supplemented with 5% dialyzed FBS. 16-24 hrs post-plating, the medium was aspirated and replaced with 30 μl/well of Calcium Assay Kit Component A Dye (Molecular Devices; Sunnyvale, Calif.) dissolved in 30 ml/bottle of assay buffer (2.5 mM probenecid, 20 mM Hepes, and 1× Hanks' Balanced Salt Solution (Invitrogen; Carlsbad, Calif.) (138 mM NaCl, 5.3 mM KCl, 1.3 mM CaCl2, 0.49 mM MgCl2, 0.41 mM MgSO4, 0.44 mM KH2PO4, 0.34 mM Na2HPO4) pH 7.4. Plates were incubated in the dye for 1 hr at 37° C. Dilutions were made in assay buffer as 2× stocks and added to 96-well drug plates. Fluorometric imaging was performed using a FlexStation II plate reader (Molecular Devices) reading the plate at 1.5 second intervals for 1 min. After establishing a fluorescent baseline (excitation at 485 nm and emission at 525 nm, using a […] cutoff), the FlexStation II automatically transferred 30 μl of 2× drug stocks from the drug plate to the cell plate at the 20 second time point with reading for another 40 seconds. Peak relative fluorescence units (RFU) were subtracted from baseline RFUs using SoftMax Pro (Molecular Devices) and values were imported into GraphPad Prism version 4.03 (GraphPad Software; San Diego, Calif.) for analysis. Ca++-flux studies are very convenient for initial screening of large numbers of compounds for agonist activity.
(§3) Compounds are resuspended in DMSO at a stock concentration of 2-15 mM and, for a typical agonist screen, are diluted in assay buffer to a final 2× concentration of 20 μM into drugs plates. Compounds are added in duplicate to cell plates using the FlexStation II as described to identify agonists, defined as having >10% of maximal 5-HT response. […] Generally, screens are performed twice with each determination being made in duplicate.
(§4) Compounds identified by primary screens to be agonists are subsequently used in concentration-response experiments to verify the initial observations and obtain agonist potencies. Concentration-response studies are performed in triplicate or quadruplicate at each concentration and repeated three times. Baseline-subtracted RFU values imported into GraphPad Prism are analyzed by non-linear regression to obtain pEC50 values, and normalized to maximal 5-HT response to obtain relative efficacies.

[3] = target: T3, human 5-HT2A receptor (Homo sapiens, UniProt P28223); assay: Functional activity by Ca++-flux (intracellular calcium mobilization), 5-HT2A; conditions: for EC50: Ca++-flux, HEK-293 cells, NA = not active
T3 construct: expressed in transfected cells; host or cells: HEK-293
Procedure: The functional activity of the compounds for the human 5-HT2A, human 5-HT2B, and human 5-HT2C receptors is determined by measurement of Ca++-flux as detailed in the Examples, in transiently transfected HEK-293 cells and the results are summarized in Table I. Structures of compounds listed in Table I are given in Scheme 15.
The functional activity of compounds for the human 5-HT2A, human 5-HT2B, and human 5-HT2C receptors as agonists, partial agonists and antagonists is determined by measurement of Ca++-flux. The results are summarized in Table 1 where EC50 for different receptors are given (nM) and the ratio of activities 2A/2C and 2B/2C are also given. As noted above, other methods for assessing agonist/antagonist function of compounds for 5-HT2 family receptors are known in the art.
as §1, §2
as §3, with “duplicate. Typical Z′-factor (Zhang et al., 1999) values for agonist screens ranged from 0.61-0.79 (5-HT2AR), 0.42-0.81 (5-HT2BR) and 0.38-0.72 (5-HT2CR); these Z′-factor values are adequate for screening studies in which N=2 determinations are made and the screens replicated for a total of N=4 determinations.” for “duplicate.”
as §4

[4] = Ca++-flux, HEK-293 cells, NA = not active, read-out: 5-HT2B human EC50
[5] = Ca++-flux, HEK-293 cells, NA = not active, read-out: 5-HT2C human EC50

T3 sequence (P28223 whole entry): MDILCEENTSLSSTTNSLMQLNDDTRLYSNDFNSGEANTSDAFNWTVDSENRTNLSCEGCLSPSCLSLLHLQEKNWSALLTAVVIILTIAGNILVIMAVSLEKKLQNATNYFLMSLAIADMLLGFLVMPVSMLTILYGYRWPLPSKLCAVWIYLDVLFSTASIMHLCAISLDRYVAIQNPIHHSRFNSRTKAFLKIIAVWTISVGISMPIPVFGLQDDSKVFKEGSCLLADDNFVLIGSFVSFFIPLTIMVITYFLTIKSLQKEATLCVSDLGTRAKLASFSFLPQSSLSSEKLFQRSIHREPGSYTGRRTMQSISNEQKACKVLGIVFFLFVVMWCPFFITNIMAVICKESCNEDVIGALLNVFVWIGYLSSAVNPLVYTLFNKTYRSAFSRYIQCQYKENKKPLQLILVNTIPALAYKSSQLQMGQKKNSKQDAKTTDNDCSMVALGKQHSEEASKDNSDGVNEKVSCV
T1 sequence (P41595 whole entry): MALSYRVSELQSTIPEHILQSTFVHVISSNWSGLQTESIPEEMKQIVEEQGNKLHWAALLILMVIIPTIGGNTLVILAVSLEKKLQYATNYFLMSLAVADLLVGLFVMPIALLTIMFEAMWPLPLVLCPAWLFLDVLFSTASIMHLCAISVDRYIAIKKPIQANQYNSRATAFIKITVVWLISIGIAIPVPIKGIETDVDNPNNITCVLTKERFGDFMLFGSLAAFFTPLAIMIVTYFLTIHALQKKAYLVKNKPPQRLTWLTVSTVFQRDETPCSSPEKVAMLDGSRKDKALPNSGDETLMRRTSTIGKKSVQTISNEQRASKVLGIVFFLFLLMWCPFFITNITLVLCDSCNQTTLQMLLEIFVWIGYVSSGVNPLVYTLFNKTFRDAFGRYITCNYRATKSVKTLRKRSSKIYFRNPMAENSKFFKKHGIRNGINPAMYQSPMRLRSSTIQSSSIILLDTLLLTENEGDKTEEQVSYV

trans-(±)-[2-(4′-Fluoro-biphenyl-4-yl)-cyclopropyl]-methylamine Hydrochloride [TKU-II-57]
EC50 [1, 4]: 624 µM | EC50 [2, 5]: 10200 nM | 2A/2C ratio [2]: 101.1 | 2B/2C ratio [2]: 61 | EC50 [3]: 1030 µM

trans-(±)-[2-(2-Bromo-phenyl)-cyclopropyl]-methylamine Hydrochloride [TKU-II-78]
EC50 [1, 4]: 0.094 µM | activity at 5-HT2C receptor [2]: partial agonist activity | EC50 [2, 5]: 1.8 nM | Emax at the 5-HT2C receptor [2]: 58% | 2A/2C ratio [2]: 16.4 | 2B/2C ratio [2]: 52.2 | EC50 [3]: 0.0295 µM

CN[C@@H]1C[C@H]1c1ccccc1 (racemic) [TKU-II-38, trans-(±)-Methyl-(2-phenyl-cyclopropyl)-amine]
EC50 [2, 5]: 2500 nM | 2A/2C ratio [2]: 65.8 | EC50 [3]: 165 µM

trans-(±)-[2-(2-Fluoro-phenyl)-cyclopropyl]-methylamine Hydrochloride [TKU-II-100]
EC50 [1, 4]: 0.0002 µM | activity at 5-HT2C receptor [2]: good potency | EC50 [2, 5]: 0.66 nM | 2A/2C ratio [2]: 0.94 | 2B/2C ratio [2]: 0.3 | EC50 [3]: 0.00062 µM

trans-(±)-(2-Naphthalen-2-yl-cyclopropyl)-methylamine hydrochloride [TKU-II-42]
EC50 [1, 4]: 15.4 µM | EC50 [2, 5]: 6750 nM | 2A/2C ratio [2]: 0.14 | 2B/2C ratio [2]: 2.29 | EC50 [3]: 0.951 µM

trans-(±)-[2-(3-Bromo-phenyl)-cyclopropyl]-methylamine Hydrochloride [TKU-II-71]
EC50 [1, 4]: 0.0192 µM | activity at 5-HT2C receptor [2]: partial agonist activity | EC50 [2, 5]: 6.5 nM | Emax at the 5-HT2C receptor [2]: 75% | 2A/2C ratio [2]: 9.8 | 2B/2C ratio [2]: 2.9 | EC50 [3]: 0.0635 µM

trans-(±)-[2-(4′-Trifluoromethyl-biphenyl-4-yl)-cyclopropyl]-methylamine Hydrochloride [TKU-II-58]
EC50 [1, 4]: 1.27 µM | EC50 [2, 5]: 226 nM | 2A/2C ratio [2]: 15.1 | 2B/2C ratio [2]: 5.62 | EC50 [3]: 3.41 µM

trans-(−)-[2-(3-Bromo-phenyl)-cyclopropyl]-methylamine Hydrochloride [TKU-II-153-2]
EC50 [1, 4]: 0.251 µM | EC50 [2, 5]: 307 nM | 2A/2C ratio [2]: 7.4 | 2B/2C ratio [2]: 0.82 | EC50 [3]: 2.27 µM

trans-(±)-[2-(4-Bromo-phenyl)-cyclopropyl]-methylamine Hydrochloride [TKU-II-44]
EC50 [1, 4]: 0.495 µM | EC50 [2, 5]: 180 nM | 2A/2C ratio [2]: 5.90 | 2B/2C ratio [2]: 2.75 | EC50 [3]: 1.06 µM

trans-(±)-[2-(4-Furan-2-yl-phenyl)-cyclopropyl]-methylamine Hydrochloride [TKU-II-81]
activity at 5-HT2B receptor [1]: no activity | selectivity over the 5-HT2A receptor [2]: good selectivity | EC50 [2, 5]: 82 nM | 2A/2C ratio [2]: 3431 | EC50 [3]: 281 µM

trans-(−)-(2-Phenyl-cyclopropyl)-methylamine Hydrochloride [TKU-II-115]
EC50 [1, 4]: 1.54 µM | EC50 [2, 5]: 280 nM | 2A/2C ratio [2]: 6.02 | 2B/2C ratio [2]: 5.49 | EC50 [3]: 1.69 µM

c1ccc(CN[C@@H]2C[C@H]2c2ccccc2)cc1 (racemic) [TKU-II-30, trans-(±)-Benzyl-(2-phenyl-cyclopropyl)-amine]
EC50 [1]: 10700 µM | EC50 [2, 5]: 10500 nM | 2A/2C ratio [2]: 929.5 | 2B/2C ratio [2]: 1020 | EC50 [3]: 9790 µM

trans-(±)-[2-(3-Fluoro-phenyl)-cyclopropyl]-methylamine Hydrochloride [TKU-II-99]
EC50 [1, 4]: 4.68 µM | EC50 [2, 5]: 63.2 nM | 2A/2C ratio [2]: 1.0 | 2B/2C ratio [2]: 74 | EC50 [3]: 0.0634 µM

N[C@@H]1C[C@H]1c1ccccc1 (relative stereo) [Tranylcypromine, trans-2-phenylcyclopropylamine, reference compound]
EC50 [2]: 271 nM

trans-(±)-[2-(4′-Chloro-biphenyl-4-yl)-cyclopropyl]-methylamine Hydrochloride [TKU-II-82]
EC50 [1, 4]: 3.54 µM | selectivity over the 5-HT2A receptor [2]: good selectivity | EC50 [2, 5]: 429 nM | 2A/2C ratio [2]: 464 | 2B/2C ratio [2]: 8.3 | EC50 [3]: 199 µM

trans-(±)-[2-(4-Fluoro-phenyl)-cyclopropyl]-methylamine Hydrochloride [TKU-II-90]
EC50 [3]: 0.0071 µM

trans-(±)-[2-(4′-Chloro-biphenyl-3-yl)-cyclopropyl]-methylamine Hydrochloride [TKU-II-116]
EC50 [2, 5]: 124 nM | 2A/2C ratio [2]: 32.3 | EC50 [3]: 4 µM

cis-(±)-(2-Phenyl-cyclopropyl)-methylamine Hydrochloride [TKU-II-19]
activity at 5-HT2B receptor [1]: poorly active | EC50 [1, 4]: 0.308 µM | activity at 5-HT2C receptor [2]: poorly active | EC50 [2, 5]: 152 nM | 2A/2C ratio [2]: 4.64 | 2B/2C ratio [2]: 2.03 | activity at 5-HT2A receptor [3]: poorly active | EC50 [3]: 0.705 µM

CNC[C@@H]1C[C@H]1c1ccccc1 (racemic) [TKU-II-39, trans-(±)-Methyl-(2-phenyl-cyclopropylmethyl)-amine]
EC50 [1, 4]: 0.98 µM | EC50 [2, 5]: 718 nM | 2A/2C ratio [2]: 5.18 | 2B/2C ratio [2]: 1.36 | EC50 [3]: 3.71 µM

trans-(±)-[2-(4′-Trifluoromethyl-biphenyl-3-yl)-cyclopropyl]-methylamine Hydrochloride [TKU-II-117]
EC50 [2, 5]: 465 nM | 2A/2C ratio [2]: 596 | EC50 [3]: 277 µM

trans-(±)-[2-(4′-Chloro-biphenyl-2-yl)-cyclopropyl]-methylamine Hydrochloride [TKU-II-119]
EC50 [1, 4]: 0.0637 µM | EC50 [2, 5]: 2.54 nM | 2A/2C ratio [2]: 85 | 2B/2C ratio [2]: 25 | EC50 [3]: 0.215 µM

CC(C)N[C@@H]1C[C@H]1c1ccccc1 (racemic) [TKU-II-33, trans-(±)-Isopropyl-(2-phenyl-cyclopropyl)-amine]
EC50 [2, 5]: 8840 nM | 2A/2C ratio [2]: 166 | EC50 [3]: 1470 µM

— patent US20090203750A1, “5-HT2C Receptor Agonists as Anorectic Agents” (priority 2005, published 2009)
